Values of other authors as cited in patent publication US20070270436A1, “NOVEL AMINO- AND IMINO-ALKYLPIPERAZINES” (Recordati Ireland Limited, priority 2006, published 2007).

Tests used:
[1] = tested on: release of glutamate and acetylcholine; conditions: dentate gyrus of the hippocampus; cited from earlier work
[2] = tested on: 5-HT1A agonist discriminative stimulus cue; conditions: 0.01-1 mg/kg i.m.; cited from earlier work
aged rhesus monkeys = conditions: 1 mg/kg p.o.; cited from earlier work
marmosets = conditions: 2 mg/kg i.m., visual spatial discrimination; cited from earlier work

C[C@H](CN(C(=O)c1ccc(C#N)cc1)c1ccccn1)N1CCN(c2cccc3c2OCCO3)CC1 [lecozotan]
potassium chloride-stimulated release of glutamate and acetylcholine [1]: significantly potentiated
blockade of the 5-HT1A agonist discriminative stimulus cue [2]: dose-related blockade
substitution for 8-OH-DPAT [2]: did not substitute
task performance efficiency (aged rhesus monkeys): significant improvement
learning deficits induced by MK-801 and by cholinergic lesions of the hippocampus (marmosets): reversed
